Assay results published in patent US20260193271A1, “PAN-KRAS INHIBITOR COMPOUND” (ADLAI NORTYE BIOPHARMA CO., LTD., priority 2022, published 2026).

How the values were obtained:
AsPC-1 (G12D) = assay: In vitro cell proliferation inhibition test (CellTiter-Glo), AsPC-1; format: cell-based; details: KRAS (p.G12D), 72 h co-incubation
In short: (§1)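 IC50 was derived by four-parameter fitting of normalized CellTiter-Glo signals. These were measured after 72 h co-incubation with compound at 10 concentrations, 3-fold serial, final maximum 10 μM. Plating was 1000-5000 cells/well, adjusted to growth rate, with overnight attachment at 37 °C, 5% CO2.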

SW480 (G12V) = assay: In vitro cell proliferation inhibition test (CellTiter-Glo), SW480; format: cell-based; details: SW480 colon cell line, KRAS (p.G12V), 72 h co-incubation
In short: as §1

[1] = Homo sapiens, ASPC1, AsPC-1 pancreas cell line

Compound	IC50 (AsPC-1 (G12D); [1]) [nM]	IC50 (SW480 (G12V); Homo sapiens) [nM]	IC50 (AsPC-1 (G12D); AsPC-1 pancreas cell line) [nM]	IC50 (SW480 (G12V)) [nM]
CCn1c(-c2cc(-c3cnn(C4CCN(C)CC4)c3)cnc2[C@H](C)OC)c2c3cc(ccc31)-c1csc(n1)C[C@H](NC(=O)[C@H]1C[C@@H]1C)C(=O)N1CCC[C@H](N1)C(=O)OCC(C)(C)C2 (atropisomer, axis not shown) [Compound 63, (1S,2S)-N-((6^3S,4S,Z)-1^1-ethyl-1^2-(2-((S)-1-methoxyethyl)-5-(1-(1-methylpiperidin-4-yl)-1H-pyrazol-4-yl)pyridin-3-yl)-10,10-dimethyl-5,7-dioxo-6^1,6^2,6^3,6^4,6^5,6^6-hexahydro-1^1H-8-oxa-2(4,2)-thiazola-1(5,3)-indola-6(1,3)-pyridazinacycloundecaphane-4-yl)-2-methylcyclopropane-1-carboxamide]	48	71		
CCn1c(-c2cc(-c3cc([C@@H]4CCCN4C)on3)cnc2[C@H](C)OC)c2c3cc(ccc31)-c1csc(n1)C[C@H](NC(=O)[C@H]1C[C@@H]1C)C(=O)N1CCC[C@H](N1)C(=O)OCC(C)(C)C2 [Compound 25′, (1S,2S)-N-((6^3S,4S,Z)-1^1-ethyl-1^2-(2-((S)-1-methoxyethyl)-5-(5-((S)-1-methylpyrrolidin-2-yl)isoxazol-3-yl)pyridin-3-yl)-10,10-dimethyl-5,7-dioxo-6^1,6^2,6^3,6^4,6^5,6^6-hexahydro-1^1H-8-oxa-2(4,2)-thiazola-1(5,3)-indola-6(1,3)-pyridazinacycloundecaphane-4-yl)-2-methylcyclopropane-1-carboxamide]			3420	> 10000
CCn1c(-c2cc(-c3cc([C@H]4COCCN4C)on3)cnc2[C@H](C)OC)c2c3cc(ccc31)-c1csc(n1)C[C@H](NC(=O)[C@H]1[C@H](C)[C@@H]1C)C(=O)N1CCC[C@H](N1)C(=O)OCC(C)(C)C2 (atropisomer, axis not shown) [Compound 33, (1r,2R,3S)-N-((6^3S,4S,Z)-1^1-ethyl-1^2-(2-((S)-1-methoxyethyl)-5-(5-((R)-4-methylmorpholin-3-yl)isoxazol-3-yl)pyridin-3-yl)-10,10-dimethyl-5,7-dioxo-6^1,6^2,6^3,6^4,6^5,6^6-hexahydro-1^1H-8-oxa-2(4,2)-thiazola-1(5,3)-indola-6(1,3)-pyridazinacycloundecaphane-4-yl)-2,3-dimethylcyclopropane-1-carboxamide]	0.86	2.1		
CCn1c(-c2cc(-c3cc4c(n(C)c3=O)CCN(C)C4)cnc2[C@H](C)OC)c2c3cc(ccc31)-c1csc(n1)C[C@H](NC(=O)[C@H]1C[C@@H]1C)C(=O)N1CCC[C@H](N1)C(=O)OCC(C)(C)C2 (atropisomer, axis not shown) [Compound 52, (1S,2S)-N-((6^3S,4S,Z)-1^2-(5-(1,6-dimethyl-2-oxo-1,2,5,6,7,8-hexahydro-1,6-naphthyridin-3-yl)-2-((S)-1-methoxyethyl)pyridin-3-yl)-1^1-ethyl-10,10-dimethyl-5,7-dioxo-6^1,6^2,6^3,6^4,6^5,6^6-hexahydro-1^1H-8-oxa-2(4,2)-thiazola-1(5,3)-indola-6(1,3)-pyridazinacycloundecaphane-4-yl)-2-methylcyclopropane-1-carboxamide]	0.21	1.2		
CCn1c(-c2cc(-c3ccn(CCN4CCOCC4)c(=O)c3)cnc2[C@H](C)OC)c2c3cc(ccc31)-c1csc(n1)C[C@H](NC(=O)[C@H]1[C@H](C)[C@@H]1C)C(=O)N1CCC[C@H](N1)C(=O)OCC(C)(C)C2 (atropisomer, axis not shown) [Compound 36, (1r,2R,3S)-N-((6^3S,4S,Z)-1^1-ethyl-1^2-(6-((S)-1-methoxyethyl)-1′-(2-morpholinoethyl)-2′-oxo-1′,2′-dihydro-[3,4′-bipyridin]-5-yl)-10,10-dimethyl-5,7-dioxo-6^1,6^2,6^3,6^4,6^5,6^6-hexahydro-1^1H-8-oxa-2(4,2)-thiazola-1(5,3)-indola-6(1,3)-pyridazinacycloundecaphane-4-yl)-2,3-dimethylcyclopropane-1-carboxamide]	0.39	1		
CCn1c(-c2cc(-c3cc([C@H]4CCCN4C)on3)cnc2[C@H](C)OC)c2c3cc(ccc31)-c1csc(n1)C[C@H](NC(=O)[C@H]1C[C@@H]1C)C(=O)N1CCC[C@H](N1)C(=O)OCC(C)(C)C2 (atropisomer, axis not shown) [Compound 24, (1S,2S)-N-((6^3S,4S,Z)-1^1-ethyl-1^2-(2-((S)-1-methoxyethyl)-5-(5-((R)-1-methylpyrrolidin-2-yl)isoxazol-3-yl)pyridin-3-yl)-10,10-dimethyl-5,7-dioxo-6^1,6^2,6^3,6^4,6^5,6^6-hexahydro-1^1H-8-oxa-2(4,2)-thiazola-1(5,3)-indola-6(1,3)-pyridazinacycloundecaphane-4-yl)-2-methylcyclopropane-1-carboxamide]	26	19		
(1S,2S)-N-((6^3S,4S,Z)-1^1-ethyl-1^2-(2-((S)-1-methoxyethyl)-5-(1-((R)-1-methylpyrrolidin-3-yl)-1H-pyrazol-4-yl)pyridin-3-yl)-10,10-dimethyl-5,7-dioxo-6^1,6^2,6^3,6^4,6^5,6^6-hexahydro-1^1H-8-oxa-2(4,2)-thiazola-1(5,3)-indola-6(1,3)-pyridazinacycloundecaphane-4-yl)-2-methylcyclopropane-1-carboxamide [Compound 16′]			2280	265
CCn1c(-c2cc(-c3cnc(N4CCOCC4)nc3)cnc2[C@H](C)OC)c2c3cc(ccc31)-c1csc(n1)C[C@H](NC(=O)[C@H]1C[C@@H]1C)C(=O)N1CCC[C@H](N1)C(=O)OCC(C)(C)C2 (atropisomer, axis not shown) [Compound 56, (1S,2S)-N-((6^3S,4S,Z)-1^1-ethyl-1^2-(2-((S)-1-methoxyethyl)-5-(2-morpholinopyrimidin-5-yl)pyridin-3-yl)-10,10-dimethyl-5,7-dioxo-6^1,6^2,6^3,6^4,6^5,6^6-hexahydro-1^1H-8-oxa-2(4,2)-thiazola-1(5,3)-indola-6(1,3)-pyridazinacycloundecaphane-4-yl)-2-methylcyclopropane-1-carboxamide]	16	21		
CCn1c(-c2cc(-c3cnc(CN4CCCCC4)nc3)cnc2[C@H](C)OC)c2c3cc(ccc31)-c1csc(n1)C[C@H](NC(=O)[C@H]1C[C@@H]1C)C(=O)N1CCC[C@H](N1)C(=O)OCC(C)(C)C2 (atropisomer, axis not shown) [Compound 55, (1S,2S)-N-((6^3S,4S,Z)-1^1-ethyl-1^2-(2-((S)-1-methoxyethyl)-5-(2-(piperidin-1-ylmethyl)pyrimidin-5-yl)pyridin-3-yl)-10,10-dimethyl-5,7-dioxo-6^1,6^2,6^3,6^4,6^5,6^6-hexahydro-1^1H-8-oxa-2(4,2)-thiazola-1(5,3)-indola-6(1,3)-pyridazinacycloundecaphane-4-yl)-2-methylcyclopropane-1-carboxamide]	6.8	15		
CCn1c(-c2cc(-c3cnn(CC4CCCN4C)c3)cnc2C(C)OC)c2c3cc(ccc31)-c1csc(n1)CC(NC(=O)C1C(C)C1C)C(=O)N1CCCC(N1)C(=O)OCC(C)(C)C2 [Compound 62, (1r,2R,3S)-N-((6^3S,4S,Z)-1^1-ethyl-1^2-(2-((S)-1-methoxyethyl)-5-(1-(((R)-1-methylpyrrolidin-2-yl)methyl)-1H-pyrazol-4-yl)pyridin-3-yl)-10,10-dimethyl-5,7-dioxo-6^1,6^2,6^3,6^4,6^5,6^6-hexahydro-1^1H-8-oxa-2(4,2)-thiazola-1(5,3)-indola-6(1,3)-pyridazinacycloundecaphane-4-yl)-2,3-dimethylcyclopropane-1-carboxamide]			0.54	3.9
CCn1c(-c2cc(-c3ccc(CN4CC[C@@H](S(C)(=O)=O)C4)cn3)cnc2[C@H](C)OC)c2c3cc(ccc31)-c1csc(n1)C[C@H](NC(=O)[C@H]1C[C@@H]1C)C(=O)N1CCC[C@H](N1)C(=O)OCC(C)(C)C2 (atropisomer, axis not shown) [Compound 50, (1S,2S)-N-((6^3S,4S,Z)-1^1-ethyl-1^2-(6′-((S)-1-methoxyethyl)-5-(((R)-3-(methylsulfonyl)pyrrolidin-1-yl)methyl)-[2,3′-bipyridin]-5′-yl)-10,10-dimethyl-5,7-dioxo-6^1,6^2,6^3,6^4,6^5,6^6-hexahydro-1^1H-8-oxa-2(4,2)-thiazola-1(5,3)-indola-6(1,3)-pyridazinacycloundecaphane-4-yl)-2-methylcyclopropane-1-carboxamide]	8.5	7.8		
CCn1c(-c2cc(-c3nc(C)no3)cnc2[C@H](C)OC)c2c3cc(ccc31)-c1csc(n1)C[C@H](NC(=O)[C@H]1C[C@@H]1C)C(=O)N1CCC[C@H](N1)C(=O)OCC(C)(C)C2 (atropisomer, axis not shown) [Compound 21, (1S,2S)-N-((6^3S,4S,Z)-1^1-ethyl-1^2-(2-((S)-1-methoxyethyl)-5-(3-methyl-1,2,4-oxadiazol-5-yl)pyridin-3-yl)-10,10-dimethyl-5,7-dioxo-6^1,6^2,6^3,6^4,6^5,6^6-hexahydro-1^1H-8-oxa-2(4,2)-thiazola-1(5,3)-indola-6(1,3)-pyridazinacycloundecaphane-4-yl)-2-methylcyclopropane-1-carboxamide]	11	15		
CCn1c(-c2cc(-c3cnc(CN4CCN(C)CC4)nc3)cnc2[C@H](C)OC)c2c3cc(ccc31)-c1csc(n1)C[C@H](NC(=O)[C@H]1C[C@@H]1C)C(=O)N1CCC[C@H](N1)C(=O)OCC(C)(C)C2 (atropisomer, axis not shown) [Compound 53, (1S,2S)-N-((6^3S,4S,Z)-1^1-ethyl-1^2-(2-((S)-1-methoxyethyl)-5-(2-((4-methylpiperazin-1-yl)methyl)pyrimidin-5-yl)pyridin-3-yl)-10,10-dimethyl-5,7-dioxo-6^1,6^2,6^3,6^4,6^5,6^6-hexahydro-1^1H-8-oxa-2(4,2)-thiazola-1(5,3)-indola-6(1,3)-pyridazinacycloundecaphane-4-yl)-2-methylcyclopropane-1-carboxamide]	4.3	1.7		
